Data published in US7064120B2, “Tricyclic pyridyl carboxamides and derivatives thereof tocolytic oxytocin receptor antagonists” (Wyeth, priority 2001, dated 2006).

Molecular target: T1, human oxytocin receptor (Homo sapiens, UniProt P30559)
T1 construct: host or cells: CHO cells, stably transfected (pcDNA3.1 vector)
T1 sequence (P30559 1-389): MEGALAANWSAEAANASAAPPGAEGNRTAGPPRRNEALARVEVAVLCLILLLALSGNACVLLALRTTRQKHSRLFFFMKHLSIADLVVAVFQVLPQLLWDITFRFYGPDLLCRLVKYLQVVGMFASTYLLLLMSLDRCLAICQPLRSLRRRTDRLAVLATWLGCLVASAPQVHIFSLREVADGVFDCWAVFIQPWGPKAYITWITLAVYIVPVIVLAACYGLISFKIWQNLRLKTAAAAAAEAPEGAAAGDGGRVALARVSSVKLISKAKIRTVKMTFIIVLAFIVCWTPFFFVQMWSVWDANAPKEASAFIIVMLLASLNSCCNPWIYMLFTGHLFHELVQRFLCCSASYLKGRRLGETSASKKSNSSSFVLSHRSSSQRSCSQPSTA
Assay: Oxytocin binding in CHO cell membranes expressing human oxytocin receptors ([3H]oxytocin radioligand binding)
Settings: 100 nM; for inhibition at 0.1 µM: read-out: OT % inhibition @ 100 nM
Description: Oxytocin Binding in Chinese Hamster Ovary Cell Membranes Expressing Human Oxytocin Receptors
Cell Culture medium (e.g. 30 mL for 1:30 split) is immediately added and mixed well to inactivate trypsin. 1 mL of detached cells is added to new culture flasks containing fresh Cell Culture medium (e.g. into 25 mL per T-150 flask), and mixed gently. The cells are incubated at 37° C. in 5% CO2. The medium is changed at 3 to 4 days interval (or as appropriate). […] All steps are done under sterile conditions.
The cells are washed twice gently with Hank's Balanced Salt solution (e.g., use 10 mL per T-150 flask). […] The contents are transferred to centrifuge tubes (50 mL size) kept in ice bath. All subsequent steps are done at 4° C. The tubes are centrifuged at 300×g for 15 min (1380 rpm on SORVAL, Model RT6000D, using rotor for 50 mL tubes). The supernatant is discarded and the cells suspended in homogenizing buffer (10 mM Tris-HCl containing 0.25 M sucrose and 1 mM EDTA, pH 7.4) ensuring that the volume of the buffer is about ten times the volume of the cell pellet. The cells are pooled into a centrifuge tube (50 mL) and homogenized with a Polytron at setting 6 for 10 sec. The homogenate is transferred into a Potter-Elvjehm homogenizer and homogenized with 3 strokes. The homogenate is centrifuged at 1500×g for 10 min at 4° C. (3100 rpm using SORVAL, model RT6000D, using a rotor for 50 mL tubes). The pellet is discarded. The supernatant is centrifuged at 100,000×g for 60 min. at 4° C. (Beckman L8-80M ultracentrifuge; spin at 37,500 rpm with rotor type 70 Ti for 50 mL tubes; 38,000 rpm with rotor type 8OTi for 15 mL tubes; or 35,800 rpm with rotor type 45Ti). The supernantant is discarded and the pellet suspended in 3 to 4 mL of Tris buffer (50 mM TRIS-HCl, pH 7.4). The protein content is estimated by the Bradford or Lowry method. The volume of the membrane suspension is adjusted with the membrane buffer (50 mM Tris-HCl containing 0.1% BSA and 0.1 mM PMSF) to give 3.0 mg/mL (or as appropriate) of protein. The membranes are aliquoted and stored at −70° C.
In wells of a 96-well format microtiter plate, is added 90, 110 or 130 μL (to make up a final volume of 200 μL) of assay buffer containing 50 mM of Tris-HCl (pH 7.4), […], 1 mg % aprotinin, 1 mg % leupeptin, 2 mg % 1,10-phenanthroline, 10 mg % trypsin inhibitor, and 0.1 mM PMSF. The inhibitors are added on the day of the experiment. The components are mixed at room temperature, and then kept in ice bath following adjustment of the pH to 7.4. […] For oxytocin and other peptide ligands, 20 μL of 50% DMSO is added and the assay buffer volume is adjusted accordingly. To each well is added 50 μL of frozen membrane suspension thawed immediately prior to use and diluted in assay buffer to the required concentration (equivalent to 25 to 50 μg of protein/well as needed). 20 μL of 8 nM [^3H]oxytocin in the assay buffer, prepared just before use is added and incubated at room temperature for 60 min. shaking the plate on a mechanical shaker for the first 15 min. The incubation is stopped by rapid filtration of the plate contents followed by washing with ice-cold buffer (50 mM Tris-HCl, pH 7.4) using a cell harvester (Tomtek and Printed filtermat-B filter paper). The filter paper is thoroughly dried (7–12 min. in a microwave oven) and impregnated with MeltiLex B/H melt-on scintillation wax sheets and the radioactivity counted in a betaplate scintillation counter.
Binding data is either reported as percent inhibition at a certain concentration or if an IC50 was calculated, as a nanomolar concentration.

inhibition at 0.1 µM [%] | SMILES | OT % inhibition @ 100 nM [%]
91 | COc1ccccc1-c1ccc(C(=O)N2Cc3ccc(C(=O)N(C)CCc4ccccn4)n3Cc3ccccc32)cc1OC [Example 64, 10-[(2,2′-Dimethoxy-[1,1′-biphenyl]-4-yl)carbonyl]-N-methyl-N-[2-(2-pyridinyl)ethyl]-10,11-dihydro-5H-pyrrolo[2,1-c][1,4]benzodiazepine-3-carboxamide] | 
 | COc1cc(C(=O)N2Cc3ccc(C(=O)N4CCN(c5ccccn5)CC4)n3Cc3ccccc32)ccc1-c1cccc2ccccc12 [Example 83] | 30
 | COc1cccc(-c2ccc(C(=O)N3Cc4ccc(C(=O)NCc5ccncc5)n4Cc4ccccc43)cc2OC)c1 [Example 98] | 39
98 | COc1cc(C(=O)N2Cc3ccc(C(=O)N(C)Cc4cccnc4)n3Cc3ccccc32)ccc1-c1ccccc1C [Example 106, 10-[(2-Methoxy-2′-methyl-[1,1′-biphenyl]-4-yl)carbonyl]-N-methyl-N-(3-pyridinylmethyl)-10,11-dihydro-5H-pyrrolo[2,1-c][1,4]benzodiazepine-3-carboxamide] | 
92 | COc1cc(-c2ccccc2C)c(Cl)cc1C(=O)N1Cc2ccc(C(=O)N(C)Cc3cccnc3)n2Cc2ccccc21 [Example 107, 10-[(6-Chloro-3-methoxy-2′-methyl-[1,1′-biphenyl]-4-yl)carbonyl]-N-methyl-N-(3-pyridinylmethyl)-10,11-dihydro-5H-pyrrolo[2,1-c][1,4]benzodiazepine-3-carboxamide] | 
83 | COc1cccc(-c2cc(OC)c(C(=O)N3Cc4ccc(C(=O)N(C)Cc5cccnc5)n4Cc4ccccc43)cc2Cl)c1 [Example 108, 10-[(6-Chloro-3,3′-dimethoxy-[1,1′-biphenyl]-4-yl)carbonyl]-N-methyl-N-(3-pyridinylmethyl)-10,11-dihydro-5H-pyrrolo[2,1-c][1,4]benzodiazepine-3-carboxamide] | 
70 | COc1cc(C(=O)N2Cc3ccc(C(=O)N(C)Cc4cccnc4)n3Cc3ccccc32)ccc1-c1cccc2ccccc12 [Example 109, 10-[3-Methoxy-4-(naphthalen-1-yl)benzoyl]-N-methyl-N-(3-pyridinylmethyl)-10,11-dihydro-5H-pyrrolo[2,1-c][1,4]benzodiazepine-3-carboxamide] | 
 | COc1cccc(-c2ccc(C(=O)N3Cc4ccc(C(=O)N(C)Cc5cccnc5)n4Cc4ccccc43)cc2OC)c1 [Example 110] | 94
36 | CN(Cc1cccnc1)C(=O)c1ccc2n1Cc1ccccc1N(C(=O)c1ccc(-c3cccc4ccccc34)cc1Cl)C2 [Example 111, 10-[2-Chloro-4-(naphthalen-1-yl)benzoyl]-N-methyl-N-(3-pyridinylmethyl)-10,11-dihydro-5H-pyrrolo[2,1-c][1,4]benzodiazepine-3-carboxamide] | 
94 | Cc1ccccc1-c1ccc(C(=O)N2Cc3ccc(C(=O)N4CCN(c5ccncc5)CC4)n3Cc3ccccc32)cc1C [Example 114, {10-[(2,2′-Dimethyl-[1,1′-biphenyl]-4-yl)carbonyl]-10,11-dihydro-5H-pyrrolo[2,1-c][1,4]benzodiazepin-3-yl}[4-(4-pyridinyl)-1-piperazinyl]methanone] | 
66 | COc1cccc(-c2ccc(C(=O)N3Cc4ccc(C(=O)N5CCN(c6ccncc6)CC5)n4Cc4ccccc43)cc2C)c1 [Example 115, {10-[(3′-Methoxy-2-methyl-[1,1′-biphenyl]-4-yl)carbonyl]-10,11-dihydro-5H-pyrrolo[2,1-c][1,4]benzodiazepin-3-yl}[4-(4-pyridinyl)-1-piperazinyl]methanone] | 
101 | COc1ccccc1-c1ccc(C(=O)N2Cc3ccc(C(=O)N4CCN(c5ccncc5)CC4)n3Cc3ccccc32)cc1 [Example 116, {10-[(2′-Methoxy-[1,1′-biphenyl]-4-yl)carbonyl]-10,11-dihydro-5H-pyrrolo[2,1-c][1,4]benzodiazepin-3-yl}[4-(4-pyridinyl)-1-piperazinyl]methanone] | 
13 | Cc1ccccc1-c1ccc(C(=O)N2Cc3ccc(C(=O)N4CCN(c5ccncc5)CC4)n3Cc3ccccc32)cc1 [Example 117, {10-[(2′-Methyl-[1,1′-biphenyl]-4-yl)carbonyl]-10,11-dihydro-5H-pyrrolo[2,1-c][1,4]benzodiazepin-3-yl}[4-(4-pyridinyl)-1-piperazinyl]methanone] | 
 | COc1cc(C(=O)N2Cc3ccc(C(=O)N4CCN(c5ccncc5)CC4)n3Cc3ccccc32)ccc1-c1ccccc1C [Example 118] | 83
83 | COc1cc(-c2ccccc2C)c(Cl)cc1C(=O)N1Cc2ccc(C(=O)N3CCN(c4ccncc4)CC3)n2Cc2ccccc21 [Example 119, {10-[(6-Chloro-3-methoxy-2′-methyl-[1,1′-biphenyl]-4-yl)carbonyl]-10,11-dihydro-5H-pyrrolo[2,1-c][1,4]benzodiazepin-3-yl}[4-(4-pyridinyl)-1-piperazinyl]methanone] | 
67 | COc1cccc(-c2cc(OC)c(C(=O)N3Cc4ccc(C(=O)N5CCN(c6ccncc6)CC5)n4Cc4ccccc43)cc2Cl)c1 [Example 120, {10-[(6-Chloro-3,3′-dimethoxy-[1,1′-biphenyl]-4-yl)carbonyl]-10,11-dihydro-5H-pyrrolo[2,1-c][1,4]benzodiazepin-3-yl}[4-(4-pyridinyl)-1-piperazinyl]methanone] | 
57 | COc1cc(C(=O)N2Cc3ccc(C(=O)N4CCN(c5ccncc5)CC4)n3Cc3ccccc32)ccc1-c1cccc2ccccc12 [Example 121, {10-[3-Methoxy-4-(naphthalen-1-yl)benzoyl]-10,11-dihydro-5H-pyrrolo[2,1-c][1,4]benzodiazepin-3-yl}[4-(4-pyridinyl)-1-piperazinyl]methanone] | 
61 | COc1ccccc1-c1ccc(C(=O)N2Cc3ccc(C(=O)N4CCN(c5ccncc5)CC4)n3Cc3ccccc32)cc1OC [Example 122, {10-[(2,2′-Dimethoxy-[1,1′-biphenyl]-4-yl)carbonyl]-10,11-dihydro-5H-pyrrolo[2,1-c][1,4]benzodiazepin-3-yl}[4-(4-pyridinyl)-1-piperazinyl]methanone] | 
95 | COc1cccc(-c2ccc(C(=O)N3Cc4ccc(C(=O)N5CCN(c6ccncc6)CC5)n4Cc4ccccc43)cc2OC)c1 [Example 123, {10-[(2,3′-Dimethoxy-[1,1′-biphenyl]-4-yl)carbonyl]-10,11-dihydro-5H-pyrrolo[2,1-c][1,4]benzodiazepin-3-yl}[4-(4-pyridinyl)-1-piperazinyl]methanone] | 
24 | O=C(c1ccc2n1Cc1ccccc1N(C(=O)c1ccc(-c3cccc4ccccc34)cc1Cl)C2)N1CCN(c2ccncc2)CC1 [Example 124, {10-[2-Chloro-4-(naphthalen-1-yl)benzoyl]-10,11-dihydro-5H-pyrrolo[2,1-c][1,4]benzodiazepin-3-yl}[4-(4-pyridinyl)-1-piperazinyl]methanone] | 
